Measurements: patent publication US4442044A, “Process for preparing monoesters and diesters of N-alkyl substituted amino methyl phosphonic acid” (priority 1983, dated 1984)

Tests used:
Assay in all cases: post-emergent herbicidal activity, greenhouse
Assay type in all cases: in vivo
Conditions in all cases: Table I
Lambsquarters = system: Lambsquarters
Excerpt: (§1) A good grade of top soil is placed in aluminum pans having holes in the bottom and compacted to a depth of 0.95 to 1.27 cm. from the top of the pan. A predetermined number of seeds of each of several dicotyledonous and monocotyledonous annual plant species and/or vegetative propagules for the perennial plant species were placed on the soil and pressed into the soil surface. The seeds and/or vegetative propagules are covered with soil and leveled. The pans are then placed on a sand bench in the greenhouse and watered from below as needed. After the plants reach the desired age (two to three weeks), each pan except for the control pans is removed individually to a spraying chamber and sprayed by means of an atomizer operating at a positive air pressure of approximately 1.46 kg/cm^2 absolute. The atomizer contains 6 ml. of a solution or suspension of the chemical. In that 6 ml., is an amount of a cyclohexanone emulsifying agent mixture to give a spray solution or suspension which contains about 0.4% by weight of the emulsifier. The spray solution or suspension contains a sufficient amount of the candidate chemical in order to give application rates corresponding to those set forth in the tables. The spray solution is prepared by taking an aliquot of a 1.0% by weight stock solution or suspension of the candidate chemical in an organic solvent such as acetone or tetrahydrofuran or in water. The emulsifying agent employed is a mixture comprising 35 weight percent butylamine dodecylbenzene sulfonate and 65 weight percent of a tall oil ethylene oxide condensate having about 11 moles of ethylene oxide per mole of tall oil. The pans are returned to the greenhouse and watered as before and the injury to the plants as compared to the control is observed at approximately two and four weeks as indicated in the tables under WAT and the results recorded. In some instances, the two-week observations are omitted.
(§2) The post-emergent herbicidal activity index used in Tables I and II is as follows: […]

Barnyardgrass = system: Barnyardgrass
Excerpt: as §1, §2

Cocklebur = system: Cocklebur
Excerpt: as §1, §2

Downy Brome = system: Downy Brome
Excerpt: as §1, §2

Quackgrass = system: Quackgrass
Excerpt: as §1, §2

Johnsongrass = system: Johnsongrass
Excerpt: as §1, §2

Canada Thistle = system: Canada Thistle
Excerpt: as §1, §2

Smartweed = system: Smartweed
Excerpt: as §1, §2

Yellow Nutsedge = system: Yellow Nutsedge
Excerpt: as §1, §2

Morningglory = system: Morningglory
Excerpt: as §1, §2

Velvetleaf = system: Velvetleaf
Excerpt: as §1, §2

Row | SMILES | post-emergent herbicidal activity index (Lambsquarters; 2 WAT, 5.6 kg/h) | post-emergent herbicidal activity index (Lambsquarters; 4 WAT, 11.2 kg/h) | post-emergent herbicidal activity index (Barnyardgrass; 2 WAT, 5.6 kg/h) | post-emergent herbicidal activity index (Barnyardgrass; 4 WAT, 11.2 kg/h) | post-emergent herbicidal activity index (Cocklebur; 2 WAT, 5.6 kg/h) | post-emergent herbicidal activity index (Cocklebur; 4 WAT, 11.2 kg/h) | post-emergent herbicidal activity index (Downy Brome; 2 WAT, 5.6 kg/h) | post-emergent herbicidal activity index (Downy Brome; 4 WAT, 11.2 kg/h) | post-emergent herbicidal activity index (Quackgrass; 2 WAT, 5.6 kg/h) | post-emergent herbicidal activity index (Quackgrass; 4 WAT, 11.2 kg/h) | post-emergent herbicidal activity index (Johnsongrass; 2 WAT, 5.6 kg/h) | post-emergent herbicidal activity index (Johnsongrass; 4 WAT, 11.2 kg/h) | post-emergent herbicidal activity index (Canada Thistle; 2 WAT, 5.6 kg/h) | post-emergent herbicidal activity index (Canada Thistle; 4 WAT, 11.2 kg/h) | post-emergent herbicidal activity index (Smartweed; 2 WAT, 5.6 kg/h) | post-emergent herbicidal activity index (Smartweed; 4 WAT, 11.2 kg/h) | post-emergent herbicidal activity index (Yellow Nutsedge; 2 WAT, 5.6 kg/h) | post-emergent herbicidal activity index (Yellow Nutsedge; 4 WAT, 11.2 kg/h) | post-emergent herbicidal activity index (Morningglory; 4 WAT, 11.2 kg/h) | post-emergent herbicidal activity index (Velvetleaf; 4 WAT, 11.2 kg/h) | also measured
1 | N#CCCOP(=O)(CNCC#N)OCCC#N [Example 11, phosphonic acid, [[(cyanomethyl)amino]-methyl],bis 2-(cyanoethyl)ester] | 1 (25-49% control) | 1 (25-49% control) | 0 (0-24% control) | 1 (25-49% control) | 0 (0-24% control) | 1 (25-49% control) | 0 (0-24% control) | 0 (0-24% control) | 0 (0-24% control) | 1 (25-49% control) | 0 (0-24% control) | 0 (0-24% control) | 0 (0-24% control) | 2 (50-74% control) | 0 (0-24% control) | 1 (25-49% control) | 0 (0-24% control) | 1 (25-49% control) | 2 (50-74% control) | 0 (0-24% control) | post-emergent herbicidal activity index (Morningglory; 2 WAT, 5.6 kg/h): 0 (0-24% control); post-emergent herbicidal activity index (Velvetleaf; 2 WAT, 5.6 kg/h): 0 (0-24% control)
2 | CCOC(=O)CNCP(=O)(OC1CCCSC1)OC1CCCSC1 (stereo not drawn) [Example 20, glycine, N-[[bis[(tetrahydro-2H-thiopyran-3-yl)-oxy]-phosphinyl]methyl]-, ethyl ester] | 0 (0-24% control) | 1 (25-49% control) | 0 (0-24% control) | 1 (25-49% control) | 0 (0-24% control) | 0 (0-24% control) | 0 (0-24% control) | 0 (0-24% control) | 0 (0-24% control) | 1 (25-49% control) | 0 (0-24% control) | 0 (0-24% control) | 0 (0-24% control) | 0 (0-24% control) | 0 (0-24% control) | 0 (0-24% control) | 0 (0-24% control) | 0 (0-24% control) | 1 (25-49% control) | 1 (25-49% control) | post-emergent herbicidal activity index (Morningglory; 2 WAT, 5.6 kg/h): 0 (0-24% control); post-emergent herbicidal activity index (Velvetleaf; 2 WAT, 5.6 kg/h): 0 (0-24% control)
3 | CCOC(=O)CNCP(=O)(OCc1ccco1)OCc1ccco1 [Example 21, glycine, N-[[bis(2-furanylmethoxy)phosphinyl]methyl]-, ethyl ester] | – | 0 (0-24% control) | – | 0 (0-24% control) | – | 0 (0-24% control) | – | 0 (0-24% control) | – | 0 (0-24% control) | – | 0 (0-24% control) | – | 0 (0-24% control) | – | 0 (0-24% control) | – | 0 (0-24% control) | 1 (25-49% control) | 0 (0-24% control) | post-emergent herbicidal activity index (Lambsquarters; 4 WAT, 56.0 kg/h): 1 (25-49% control); post-emergent herbicidal activity index (Barnyardgrass; 4 WAT, 56.0 kg/h): 2 (50-74% control); post-emergent herbicidal activity index (Cocklebur; 4 WAT, 56.0 kg/h): 2 (50-74% control); post-emergent herbicidal activity index (Downy Brome; 4 WAT, 56.0 kg/h): 1 (25-49% control); post-emergent herbicidal activity index (Quackgrass; 4 WAT, 56.0 kg/h): 0 (0-24% control); post-emergent herbicidal activity index (Johnsongrass; 4 WAT, 56.0 kg/h): 0 (0-24% control); post-emergent herbicidal activity index (Canada Thistle; 4 WAT, 56.0 kg/h): 3 (75-99% control); post-emergent herbicidal activity index (Smartweed; 4 WAT, 56.0 kg/h): 1 (25-49% control); post-emergent herbicidal activity index (Yellow Nutsedge; 4 WAT, 56.0 kg/h): 1 (25-49% control); post-emergent herbicidal activity index (Morningglory; 4 WAT, 56.0 kg/h): 2 (50-74% control); post-emergent herbicidal activity index (Velvetleaf; 4 WAT, 56.0 kg/h): 1 (25-49% control)
4 | CCOC(=O)CNCP(=O)(OCCCl)OCCCl [Example 17, glycine, N-[[bis(2-chloroethoxy)phosphinyl]methyl]-, ethyl ester] | 0 (0-24% control) | 1 (25-49% control) | 0 (0-24% control) | 1 (25-49% control) | 0 (0-24% control) | 0 (0-24% control) | 0 (0-24% control) | 0 (0-24% control) | 0 (0-24% control) | 0 (0-24% control) | 0 (0-24% control) | 0 (0-24% control) | 0 (0-24% control) | 0 (0-24% control) | 0 (0-24% control) | 1 (25-49% control) | 0 (0-24% control) | 0 (0-24% control) | 1 (25-49% control) | 1 (25-49% control) | post-emergent herbicidal activity index (Morningglory; 2 WAT, 5.6 kg/h): 0 (0-24% control); post-emergent herbicidal activity index (Velvetleaf; 2 WAT, 5.6 kg/h): 0 (0-24% control)
5 | CCOC(=O)CNCP(=O)(OCCSC(=O)OCC)OCCSC(=O)OCC [Example 19, glycine, N-[[bis[2-[(ethoxycarbonyl)thio]ethoxy]-phosphinyl]methyl]-, ethyl ester] | – | 0 (0-24% control) | – | 2 (50-74% control) | – | 2 (50-74% control) | – | 0 (0-24% control) | – | 1 (25-49% control) | – | 2 (50-74% control) | – | 2 (50-74% control) | – | 1 (25-49% control) | – | 1 (25-49% control) | 2 (50-74% control) | 0 (0-24% control) | post-emergent herbicidal activity index (Lambsquarters; 4 WAT, 5.6 kg/h): 0 (0-24% control); post-emergent herbicidal activity index (Barnyardgrass; 4 WAT, 5.6 kg/h): 1 (25-49% control); post-emergent herbicidal activity index (Cocklebur; 4 WAT, 5.6 kg/h): 0 (0-24% control); post-emergent herbicidal activity index (Downy Brome; 4 WAT, 5.6 kg/h): 0 (0-24% control); post-emergent herbicidal activity index (Quackgrass; 4 WAT, 5.6 kg/h): 0 (0-24% control); post-emergent herbicidal activity index (Johnsongrass; 4 WAT, 5.6 kg/h): 1 (25-49% control); post-emergent herbicidal activity index (Canada Thistle; 4 WAT, 5.6 kg/h): 1 (25-49% control); post-emergent herbicidal activity index (Smartweed; 4 WAT, 5.6 kg/h): 0 (0-24% control); post-emergent herbicidal activity index (Yellow Nutsedge; 4 WAT, 5.6 kg/h): 0 (0-24% control); post-emergent herbicidal activity index (Morningglory; 4 WAT, 5.6 kg/h): 2 (50-74% control); post-emergent herbicidal activity index (Velvetleaf; 4 WAT, 5.6 kg/h): 0 (0-24% control)
6 | C#CCNCP(=O)(OC(C)C#N)OC(C)C#N (stereo not drawn) [Example 3, phosphonic acid, [(2-propnylamino)methyl]-,bis(1-cyanoethyl)ester] | – | – | – | – | – | – | – | – | – | – | – | – | – | – | – | – | – | – | – | – | post-emergent herbicidal activity index (Lambsquarters; 2 WAT, 11.2 kg/h): 0 (0-24% control); post-emergent herbicidal activity index (Barnyardgrass; 2 WAT, 11.2 kg/h): 2 (50-74% control); post-emergent herbicidal activity index (Cocklebur; 2 WAT, 11.2 kg/h): 0 (0-24% control); post-emergent herbicidal activity index (Downy Brome; 2 WAT, 11.2 kg/h): 0 (0-24% control); post-emergent herbicidal activity index (Quackgrass; 2 WAT, 11.2 kg/h): 0 (0-24% control); post-emergent herbicidal activity index (Johnsongrass; 2 WAT, 11.2 kg/h): 0 (0-24% control); post-emergent herbicidal activity index (Canada Thistle; 2 WAT, 11.2 kg/h): 0 (0-24% control); post-emergent herbicidal activity index (Smartweed; 2 WAT, 11.2 kg/h): 1 (25-49% control); post-emergent herbicidal activity index (Yellow Nutsedge; 2 WAT, 11.2 kg/h): 0 (0-24% control); post-emergent herbicidal activity index (Morningglory; 2 WAT, 11.2 kg/h): 0 (0-24% control); post-emergent herbicidal activity index (Velvetleaf; 2 WAT, 11.2 kg/h): 0 (0-24% control)
7 | CC(C#N)OP(=O)(CNC(C)(C)C)OC(C)C#N (stereo not drawn) [Example 4, phosphonic acid, [[(1,1-dimethylethyl)amino]methyl]-,bis(1-cyanoethyl) ester] | – | – | – | – | – | – | – | – | – | – | – | – | – | – | – | – | – | – | – | – | post-emergent herbicidal activity index (Lambsquarters; 2 WAT, 11.2 kg/h): 1 (25-49% control); post-emergent herbicidal activity index (Barnyardgrass; 2 WAT, 11.2 kg/h): 1 (25-49% control); post-emergent herbicidal activity index (Cocklebur; 2 WAT, 11.2 kg/h): 0 (0-24% control); post-emergent herbicidal activity index (Downy Brome; 2 WAT, 11.2 kg/h): 0 (0-24% control); post-emergent herbicidal activity index (Quackgrass; 2 WAT, 11.2 kg/h): 0 (0-24% control); post-emergent herbicidal activity index (Johnsongrass; 2 WAT, 11.2 kg/h): 0 (0-24% control); post-emergent herbicidal activity index (Canada Thistle; 2 WAT, 11.2 kg/h): 0 (0-24% control); post-emergent herbicidal activity index (Smartweed; 2 WAT, 11.2 kg/h): 1 (25-49% control); post-emergent herbicidal activity index (Yellow Nutsedge; 2 WAT, 11.2 kg/h): 0 (0-24% control); post-emergent herbicidal activity index (Morningglory; 2 WAT, 11.2 kg/h): 0 (0-24% control); post-emergent herbicidal activity index (Velvetleaf; 2 WAT, 11.2 kg/h): 0 (0-24% control)
